Experimental data as given in patent US7446127B2, “Chroman carboxylic acid derivatives for the treatment of diabetes and lipid disorders” (SK Holdings Co, Ltd., priority 2003, dated 2008).

Legend:
[1] = tested on: db/db mice; test: Efficacy test for blood glucose lowering (db/db mice); format: in vivo; details: 30 mg/kg/d oral
Protocol: (§1) Mice used in this study were standard model of type II diabetes developed by Jackson Laboratories (Bar Harbor, Me.). Male, 8-week-old db/db mice were housed six per cage in hanging wire bottom cages with standard laboratory conditions. The mice had free access to normal chow (Purina Rodent Chow) and water. At the age of 11-12 weeks, mice were bled in the tail for glucose matching among the groups (n=6 per group). The grouped mice were then dosed orally with vehicle (CMC) or with compounds of formula I (30 mg/kg/d) for 7 days. Compound of formula I at 30 mg/kg/d was dosed as suspension in 0.5% CMC+0.2% Tween 80 in H2O. Fresh suspension was prepared for 8 days dosing and kept in a refrigerator. The suspension was administered by oral gavage daily in the morning. The control group received vehicle (dose 10 mL/kg). Blood glucose concentrations were monitored at basal and 3 hr post dose on day 4 and 8. For blood sampling, mice were placed in a restrainer and drop of blood was obtained by nick in the tip of the tail. Blood glucose concentrations were determined either by putting a drop of blood on a glucose strip for analysis by a glucometer or using a 10 μL plasma sample in a YSI (Yellow Spring Instruments, OH) analyzer. Results are expressed as absolute blood glucose concentrations (mg/dL) and % reduction that is achieved reduction relative to vehicle treated control group. Animals having more than 300 mg/dL of blood glucose were used for testing. Statistical significance (p<0.05) is given versus the appropriate sample in vehicle treated animals. On day 7, the mice were fasted overnight for 18 hrs and were bled in the tail for the glucose level checking then dosed with the testing compounds (30 mg/kg/d). After 2 hr, blood samples were taken and the rats were dosed with 10% glucose in water (10 ml/kg) orally and blood glucose was monitored at 15, 30, 60, 90 and 120 min after dosing. The blood samples were centrifuged and plasma samples were collected and analyzed for insulin, Tg and FFA.

[2] = Solubility in dosing vehicle; format: physicochemical
Source text: It appeared that compounds of Examples 1 and 2 were not soluble in 0.5% CMC vehicle.

[3] = tested on: HF rat; test: Insulin tolerance test (ITT) in HF rat; format: in vivo, Sprague-Dawley rats; details: 30 mg/kg oral, insulin 0.25 U/kg i.p. 2 hr later
Protocol: An Oral Glucose Tolerance Test (OGTT) was performed both in db/db mice and in high fat (HF) rats after dosing 30 mg/kg/d of compounds of Examples 1 and 2 for 9 days. For OGTT and ITT studies, Sprague-Dawley rats were prepared by feeding high fat (HF) diet (60% calorie from fat) for 6 weeks. Before the study, they were matched into groups on the basis of blood glucose levels. Insulin tolerance test (ITT) was performed in HF rat which were prepared in the same manner with OGTT test animal. On the day of the study, rats were orally dosed with the testing compounds (30 mg/kg) and 2 hr later, rats were dosed with insulin (0.25 U/kg, i.p.) in 0.1% BSA solution in saline. Blood glucose of the rat was measured at 15, 30, 60, 120 min after dose.

[4] = tested on: differentiated 3T3-L1 adipocytes; test: Glucose transport assay (2-deoxy-D-glucose uptake); format: cell-based; details: 48 hr; for Fold Stimulation (50 μM) of 2-deoxy-D-glucose uptake, Insulin + Compound: 50 μM compound + 100 nM insulin; for fold induction at 50 µM: Mus musculus, 50 μM compound alone, read-out: Fold Stimulation (50 μM) of 2-deoxy-D-glucose uptake, Compound only
Protocol: 3T3-L1 fibroblasts (American Type Culture Collection) were plated and grown for 2 days postconfluence in Dulbecco's modified Eagle's medium (DMEM; 4,500 mg/L glucose, HyClone) supplemented 10% FBS, 10 μg/mL penicillin and streptomycin in an atmosphere of 5% CO2 at 37° C. Adipocyte differentiation was then induced using standard protocol. After 48 hr, the differentiation medium was replaced with maintenance medium containing DMEM supplemented with 10% FBS. The maintenance medium was changed every 3 days until the cells were utilized for experimentation. Glucose transport activity was measured in the presence or absence of insulin and the protocol was modified from Kletzien, R F et al. (1992) Molecular Pharmacology 41:393-398. Briefly, differentiated 3T3-L1 adipocytes were incubated with vehicle (DMSO), insulin (100 nM) alone, test compound (50 μM) alone and a combination of insulin (100 nM)+test compound (50 μM) for 48 hr. Medium was changed twice a day in the presence of compound. Glucose uptake was measured using 2-Deoxy-D-[1−^3H] glucose as label after 90 min incubation with each compound. […] In the series of compounds, one of the best result was obtained with 7-[2-(5-methyl-2-phenyl-4-oxazolyl)-ethoxy]-chroman-3-carboxylic acid (Example 1).

[5] = tested on: high fat (HF) rats; test: Oral Glucose Tolerance Test (OGTT) in high fat (HF) rats; format: in vivo, Sprague-Dawley rats; details: 30 mg/kg/d for 9 days
Protocol: An Oral Glucose Tolerance Test (OGTT) was performed both in db/db mice and in high fat (HF) rats after dosing 30 mg/kg/d of compounds of Examples 1 and 2 for 9 days. For OGTT and ITT studies, Sprague-Dawley rats were prepared by feeding high fat (HF) diet (60% calorie from fat) for 6 weeks. Before the study, they were matched into groups on the basis of blood glucose levels.

[6] = tested on: db/db mice; test: Oral Glucose Tolerance Test (OGTT) in db/db mice; format: in vivo; details: 30 mg/kg/d for 9 days
Protocol: as §1, with “FFA. An Oral Glucose Tolerance Test (OGTT) was performed both in db/db mice and in high fat (HF) rats after dosing 30 mg/kg/d of compounds of Examples 1 and 2 for 9 days. For OGTT and ITT studies, Sprague-Dawley rats were prepared by feeding high fat (HF) diet (60% calorie from fat) for 6 weeks. Before the study, they were matched into groups on the basis of blood glucose levels.” for “FFA.”

[7] = tested on: STZ rat; test: Blood glucose lowering effect in STZ rat; format: in vivo; details: STZ rat (data not shown)

Structure (SMILES)	Fold Stimulation (50 μM) of 2-deoxy-D-glucose uptake, Insulin + Compound [4] [fold]	fold induction at 50 µM [4]	also measured
Cc1oc(-c2ccc(-c3ccccc3)cc2)nc1CCOc1ccc2c(c1)OCC(C(=O)O)C2 (stereo not shown) [Example 2, 7-[2-(5-Methyl-2-(4-phenyl)phenyl-4-oxazolyl)ethoxy]chromane-3-carboxylic acid]	6.4	1.5	Fatty acid % reduction ([1]; plasma): −21.1%; Insulin % reduction ([1]; plasma): −72.7%; Glucose Max % efficacy ([1]; suspension in 0.5% CMC + 0.2% Tween 80): 70.3%; Glucose Observed value ([1]; suspension in 0.5% CMC + 0.2% Tween 80, control 261.2): 148.3 mg/dL; solubility in 0.5% CMC vehicle [2]: not soluble; AUC of Glucose in high fat rat, % reduction [3]: 4.2%; AUC of Glucose in high fat rat, Observed value ([3]; control 13359): 12796 mg/dl × 120 min; AUC of Glucose in high fat rat, % reduction [5]: 10.1%; AUC of Glucose in high fat rat, Observed value ([5]; control 14053): 12631 mg/dl × 120 min; AUC of Glucose in db/db, % reduction [6]: 14.0%; AUC of Glucose in db/db, Observed value ([6]; control 40858): 32406 mg/dl × 120 min; blood glucose lowering effect [7]: did not reduce blood glucose
Cc1oc(-c2ccc(F)cc2)nc1CCOc1ccc2c(c1)OCC(C(=O)O)C2 (stereo not shown) [Example 3]	5.9	1.3	
Cc1oc(-c2cccs2)nc1CCOc1ccc2c(c1)OCC(C(=O)O)C2 (stereo not shown) [Example 4, 7-[2-(5-methyl-2-thien-2-yl-1,3-oxazol-4-yl)ethoxy]chromane-3-carboxylic acid]	7.6	1.5	
O=C(O)C1COc2cc(OCCc3nc(-c4ccccc4)oc3-c3ccccc3)ccc2C1 (stereo not shown) [Example 5]	8.1	1.7	
Cc1oc(-c2ccccc2)nc1COc1ccc2c(c1)OCC(C(=O)O)C2 (stereo not shown) [Example 6, 7-[(2-phenyl-5-methyl-1,3-oxazol-4-yl)methoxy]chromane-3-carboxylic acid]	10.7	1.4	
Cc1oc(-c2ccccc2)nc1CCCOc1ccc2c(c1)OCC(C(=O)O)C2 (stereo not shown) [Example 7, 7-[3-(5-Methyl-2-phenyl-4-oxazolyl)propoxy]chromane-3-carboxylic acid]	6.5	1.4	
Cc1oc(-c2ccccc2)nc1CCOc1ccc2c(c1)OCC(C(=O)NS(=O)(=O)c1ccccc1)C2 (stereo not shown) [Example 8]	8.8	1.5	
Cc1oc(-c2ccccc2)nc1CCOc1ccc2c(c1)OCC(C(=O)NS(C)(=O)=O)C2 (stereo not shown) [Example 9]	6.2	1.2	
Cc1oc(-c2ccc(Br)cc2)nc1COc1ccc2c(c1)OCC(C(=O)O)C2 (stereo not shown) [Example 10, 7-[(2-(4-bromophenyl)-5-methyl-1,3-oxazol-4-yl)methoxy]chromane-3-carboxylic acid]	5.1	1	
Cc1oc(-c2ccc(-c3ccccc3)cc2)nc1COc1ccc2c(c1)OCC(C(=O)O)C2 (stereo not shown) [Example 11]	4.6	1.3	
COC(=O)C1COc2cc(OCCc3nc(-c4ccccc4)oc3C)ccc2C1 (stereo not shown) [Example 12, Methyl 7-[2-(5-Methyl-2-phenyl-4-oxazolyl)ethoxy]chromane-3-carboxylate]	6.0	1.1	
Cc1oc(-c2ccccc2)nc1CCOc1ccc2c(c1)OCC(C(N)=O)C2 (stereo not shown) [Example 13, 7-[2-(5-Methyl-2-phenyl-4-oxazolyl)ethoxy]chromane-3-carboxylic acid amide]	8.8	1.7	
Cc1oc(-c2ccccc2)nc1CCOc1ccc2c(c1)OCC(CC(=O)O)C2 (stereo not shown) [Example 14, {7-[2-(5-Methyl-2-phenyl-oxazol-4-yl)-ethoxy]-chroman-3-yl}-acetic acid]	6.9	1.4	
CCc1ccc(CCOc2ccc(CC3SC(=O)NC3=O)cc2)nc1 (stereo not shown) [Pioglitazone, reference compound]	7.6	1.9	
